Tests used:
Test in all cases: relative viability (nuclei count vs DMSO), 5 days (fraction); higher = more cells survive
[1] = compound: C[As](C)SC[C@H](NC(=O)CC[C@H](N)C(=O)O)C(=O)NCC(=O)O [Darinaparsin] + N=C(N)NC(=N)NCCc1ccccc1 [Phenformin] (partner 250 µM)
In short: (§1)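 Relative viability divides the nuclei count in treated wells by that in vehicle wells. Lung cancer cell lines were seeded in 1536-well plates, dosed by pin tool the next day, and fixed and stained after 5 days in one step with final 0.05% Triton X-100, 1% formaldehyde and 1 ug/ml Hoechst. Dosing was a single drug or a fixed anchor-drug dose plus five library-drug doses (not always all listed) in √10 steps, and values are medians of duplicate plates imaged at 4×.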

[2] = compound: C1CC2=C(C1)C=C(C=C2)OC3=NC(=C4C(=N3)N(C=N4)CC5=CC=C(C=C5)C6=CC=CC=C6)N[C@@H](CC7=CC=CC=C7)CO [QS11] + Cc1nc(Nc2ncc(C(=O)Nc3c(C)cccc3Cl)s2)cc(N2CCN(CCO)CC2)n1 [Dasatinib] (partner 0.075 µM)
In short: as §1

[3] = compound: C[As](C)SC[C@H](NC(=O)CC[C@H](N)C(=O)O)C(=O)NCC(=O)O [Darinaparsin] + CS(=O)(=O)CCNCc1ccc(-c2ccc3ncnc(Nc4ccc(OCc5cccc(F)c5)c(Cl)c4)c3c2)o1 [Lapatinib] (partner 2 µM)
In short: as §1

[4] = compound: CC1=C(C=C(C=C1)NC(=O)C2=CC(=CC=C2)C(C)(C)C#N)NC3=CC4=C(C=C3)N=CN(C4=O)C [AZ628] + Cc1nc(Nc2ncc(C(=O)Nc3c(C)cccc3Cl)s2)cc(N2CCN(CCO)CC2)n1 [Dasatinib] (partner 0.075 µM)
In short: as §1

Cell Line	relative viability ([1]; first compound 0.08 µM)	relative viability ([1]; first compound 0.8 µM)	relative viability ([1]; first compound 2.53 µM)	relative viability ([1]; first compound 8 µM)	relative viability ([2]; first compound 0.08 µM)	relative viability ([2]; first compound 0.253 µM)	relative viability ([2]; first compound 0.8 µM)	relative viability ([2]; first compound 2.53 µM)	relative viability ([2]; first compound 8 µM)	relative viability ([3]; first compound 0.08 µM)	relative viability ([3]; first compound 0.8 µM)	relative viability ([3]; first compound 2.53 µM)	relative viability ([3]; first compound 8 µM)	relative viability ([4]; first compound 0.08 µM)	relative viability ([4]; first compound 0.253 µM)	relative viability ([4]; first compound 0.8 µM)	relative viability ([4]; first compound 2.53 µM)	relative viability ([4]; first compound 8 µM)
201T	0.478	0.451	0.404	0.5	0.57	0.543	0.561	0.599	0.376	1.05	1.03	1.02	0.76	0.592	0.533	0.53	0.513	0.471
A549	0.121	0.114	0.192	0.163	–	–	–	–	–	1.45	1.05	1.01	1.06	–	–	–	–	–
A-427	0.348	0.316	0.298	0.36	0.646	0.718	–	0.708	0.729	1.08	1.06	1.04	1.22	0.594	0.472	0.301	0.314	0.153
ABC-1	0.256	0.21	0.234	0.264	0.577	0.436	–	0.605	0.571	1.11	1.18	1.16	1.47	0.592	0.412	0.583	0.516	0.52
BEN	0.263	0.268	0.263	0.265	0.29	0.37	0.352	0.325	0.33	0.844	0.77	0.671	0.743	0.348	0.304	0.301	0.508	0.309
CAL-12T	0.657	0.534	0.478	0.605	0.4	0.365	0.466	0.368	0.334	0.698	0.557	0.775	0.68	0.385	0.336	0.255	0.271	0.278
COR-L23	0.544	0.405	0.379	0.566	0.505	0.59	0.552	0.358	0.355	1.41	0.811	0.716	1.16	0.499	0.465	0.493	0.447	0.347
COR-L 105	0.505	0.486	0.433	0.451	0.281	0.267	0.334	0.423	0.331	0.388	0.388	–	0.349	0.358	0.419	0.285	0.312	0.244
Calu-6	–	–	–	–	–	–	–	–	–	1.45	1.14	1.09	1.06	–	–	–	–	–
ChaGo-K-1	0.494	0.535	0.515	0.575	0.41	0.556	0.518	0.655	0.618	–	–	–	–	0.585	0.501	0.287	0.547	0.564
EBC-1	–	–	–	–	–	–	–	–	–	0.2	0.211	0.246	0.223	–	–	–	–	–
EKVX	0.244	0.24	0.228	0.243	0.529	0.503	0.512	0.505	0.589	0.188	0.165	0.234	0.216	0.537	0.541	0.422	0.346	0.334
EMC-BAC-2	0.559	0.505	0.514	0.559	0.341	0.337	0.376	0.285	0.269	0.858	0.924	0.949	1.05	0.303	0.321	0.383	0.373	0.412
EPLC-272H	–	0.237	0.251	0.267	–	0.394	0.35	0.257	0.333	1.02	0.935	0.923	0.93	0.317	0.345	0.398	0.357	0.231
H3255	0.381	0.384	0.363	0.332	0.319	0.394	–	0.369	0.402	0.253	0.28	0.25	0.216	0.311	0.362	0.319	0.351	0.252
HARA	0.542	0.416	0.38	0.728	0.294	0.281	–	0.221	0.307	0.77	0.692	0.649	0.755	0.322	0.227	0.175	0.247	0.198
HCC-15	0.642	0.481	0.353	0.61	0.649	0.611	0.532	0.73	0.49	1.04	0.76	0.81	1.11	0.642	0.496	0.389	0.404	0.23
HCC-44	0.312	0.197	0.223	0.169	–	–	–	–	–	1.24	1.04	0.903	1.08	–	–	–	–	–

Cell Line	relative viability ([1]; first compound 0.08 µM)	relative viability ([1]; first compound 0.8 µM)	relative viability ([1]; first compound 2.53 µM)	relative viability ([1]; first compound 8 µM)	relative viability ([2]; first compound 0.08 µM)	relative viability ([2]; first compound 0.253 µM)	relative viability ([2]; first compound 0.8 µM)	relative viability ([2]; first compound 2.53 µM)	relative viability ([2]; first compound 8 µM)	relative viability ([3]; first compound 0.08 µM)	relative viability ([3]; first compound 0.8 µM)	relative viability ([3]; first compound 2.53 µM)	relative viability ([3]; first compound 8 µM)	relative viability ([4]; first compound 0.08 µM)	relative viability ([4]; first compound 0.253 µM)	relative viability ([4]; first compound 0.8 µM)	relative viability ([4]; first compound 2.53 µM)	relative viability ([4]; first compound 8 µM)
HCC-78	0.728	0.772	0.819	0.745	0.432	0.395	0.491	0.558	0.67	0.76	0.58	0.704	0.885	0.514	0.338	0.417	0.394	0.367
HCC-366	0.65	0.649	0.588	0.665	0.7	0.616	–	0.578	0.576	1.63	0.95	1.03	1.67	0.663	0.653	0.492	0.55	0.406
HCC-827	0.41	0.417	0.331	0.435	0.244	0.26	0.386	0.305	0.328	0.198	0.184	0.153	0.176	0.364	0.295	0.296	0.25	0.18
HOP-62	0.964	0.759	0.494	0.8	0.695	0.667	0.708	0.615	0.706	1.12	1.01	0.97	1.29	0.501	0.608	0.477	0.478	0.317
IA-LM	–	–	–	–	–	–	–	–	–	1.25	0.658	1.32	1.07	–	–	–	–	–
LC-2-ad	0.614	0.5	0.564	0.484	0.535	0.537	0.614	0.693	0.79	1.14	0.863	0.892	1.08	0.713	0.419	0.396	0.365	0.149
LCLC-103H	0.36	0.365	0.318	0.349	0.403	0.511	0.447	0.601	0.576	–	–	–	–	0.559	0.427	0.523	0.399	0.478
LK-2	0.399	–	0.346	0.429	0.287	0.321	0.317	0.268	0.306	0.978	0.622	0.926	1.05	0.311	0.288	0.204	0.23	0.212
LOU-NH91	0.731	0.683	0.692	0.705	0.56	0.51	0.524	0.628	0.602	0.848	0.647	0.705	0.795	0.553	0.484	0.541	0.497	0.471
LU99A	0.927	0.856	0.897	0.78	0.463	0.587	0.685	0.684	0.681	1.03	0.942	0.923	1.22	0.527	0.625	0.52	0.492	0.242
LXF-289	0.556	0.523	0.471	0.556	0.228	0.263	0.241	0.291	0.191	0.968	0.874	0.765	1.08	0.192	0.23	0.279	0.274	0.167
NCI-H441	1.13	0.821	0.597	0.88	0.802	0.689	0.496	0.786	0.827	–	–	–	–	0.643	0.577	0.598	0.567	0.277
NCI-H522	0.711	0.597	0.611	0.658	0.857	0.826	0.922	0.975	1.07	–	–	–	–	0.758	0.952	0.732	0.919	0.731
NCI-H1299	–	–	–	–	–	–	–	–	–	1.09	0.955	0.958	0.853	–	–	–	–	–
NCI-H1623	0.619	0.572	0.587	0.621	0.502	0.567	0.66	0.544	0.641	–	–	–	–	0.554	0.447	0.301	0.493	0.374
NCI-H1703	–	–	–	–	–	–	–	–	–	–	1.18	1.29	1.18	–	–	–	–	–
NCI-H2342	0.596	0.627	0.567	0.628	0.318	0.323	0.299	0.35	0.348	–	–	–	–	0.319	0.307	0.327	0.306	0.298
SW 900	0.836	0.475	0.701	0.643	0.629	0.529	0.428	0.417	0.521	–	–	–	–	1.1	0.466	0.59	0.528	0.547
